Data set [1] concerns Pseudoalteromonas lipolytica (TC8). In words: Anti-adhesion test, strain TC8. The settings on record: Pseudoalteromonas lipolytica; for activity at 200 µM: 15 h, read-out: % of adhesion at 200 μM, TC8; for EC50: read-out: EC50 (effective concentration to inhibit 50% of the adhesion), TC8. The data set is classed as cell-based. Put shortly: (§1)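 Stationary-phase bacteria grown in VNSS, diluted in artificial sea water and incubated about 15 h with compound at eight concentrations in triplicate, DMSO up to 2%. Adhered cells stained with SYTO 61 (1 μM). EC50 from a sigmoid fit of % inhibition against log concentration.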

For data set [2], the system named is Paracoccus sp. (4M6). In words: Anti-adhesion test, strain 4M6. The format is cell-based. The settings on record: Paracoccus; for activity at 200 µM: 15 h, read-out: % of adhesion at 200 μM, 4M6. Put shortly:
as §1

Data set [3] has as its system Pseudoalteromonas ulvae (TC14). In words: Anti-adhesion test, strain TC14. The format is cell-based. The settings on record: Pseudoalteromonas ulvae; for activity at 200 µM: 15 h; for EC50: read-out: EC50 (effective concentration to inhibit 50% of the adhesion). Put shortly:
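Stationary-phase TC14 cells grown in VNSS, diluted in artificial seawater and incubated with compound at eight concentrations in triplicate (DMSO ≤2%) for about 15 h. Non-adhered bacteria removed and adhered cells quantified by SYTO 61 (1 μM) staining. EC50 derived from sigmoid fit of % inhibition versus log concentration.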

Data set [4] in a line: Electrochemical impedance spectroscopy, corrosion inhibition. The settings on record: 200 ppm; mild steel in 1N HCl; EIS. How it is done: The corrosion rates were determined by electrochemical impedance spectroscopy measurements and gravimetry.
The electrochemical measurements were performed on a 273 A potentiostat (EGG/PAR) coupled to a Solartron 1255 frequency response analyser. EIS measurements were carried out with a solution containing 1N HCl in the absence and presence of the tested compound at a concentration of 200 ppm under unstirred conditions, at open circuit potential with a 10 mV rms amplitude perturbation over a 20 mHz-100 kHz frequency range.
EIS data were registered and analysed using Zview software (Scribners Associates, USA).
A conventional three-electrode cell was used. It comprises a platinum foil as auxiliary electrode, a saturated calomel reference electrode (SCE) and a mild steel coupon as the working electrode with a surface area of 15.7 cm^2.
Electrochemical impedance spectroscopic (EIS) studies have been conducted to investigate corrosion inhibition processes of compounds of the invention according to the Electrochemical impedance spectroscopic test method described herein.
The high frequency loop was analyzed in terms of an equivalent circuit involving a parallel combination of Rct and the constant phase element of double layer (CPE). The inhibition efficiency, IE (%), was estimated from the measured Rct values using the following equation: […]

Data set [5] can be described thus: Gravimetry (weight loss), corrosion inhibition. The settings on record: mild steel in 1N HCl. Put shortly: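 Mild steel coupons (2.5×2.0×0.1 cm) immersed in non-de-aerated 1N HCl without or with various inhibitor concentrations, then washed, dried and reweighed; duplicate runs. IE (%) calculated from corrosion rates without (CR^o) and with (CR) inhibitor.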
The test system of data set [6] is Pseudoalteromonas ulvae (TC14). As to the kind of experiment: Toxicity test, strain TC14. The data set is classed as cell-based. The source says: Pseudoalteromonas ulvae (TC14) was isolated in June 2010 in the Military Harbor of Toulon (Mediterranean Sea, France) as described in F. Brian-Jaisson, A. Ortalo-Magné, L. Guentas-Dombrowsky, F. Armougom, Y. Blache, M. Molmeret, Microb. Ecol., 2014, 68, 94-110.

The test system of data set [7] is Shewanella sp. (TC11). In words: Toxicity test, strain TC11. The format is cell-based. The source says:
Shewanella sp. (TC11) was isolated in June 2010 in the Military Harbor of Toulon (Mediterranean Sea, France) as described in F. Brian-Jaisson, A. Ortalo-Magné, L. Guentas-Dombrowsky, F. Armougom, Y. Blache, M. Molmeret, Microb. Ecol., 2014, 68, 94-110.

Data set [8] concerns Pseudoalteromonas lipolytica (TC8). As to the kind of experiment: microbe, parasite or virus in culture. The source says:
(§2) The anti-adhesion bioassays and toxicity tests are adapted from those disclosed in M. Camps, J.-F. Briand, L. Guentas-Dombrowsky, G. Culioli, A. Bazire and Y. Blache, Mar. Poll.
(§3) After growth on VNSS, bacterial strains were harvested during the exponential phase. The microtiter plates (sterile transparent PS; Nunc, Fisher Scientific) were filled as described in the Anti-adhesion test method using VNSS instead of ASW to allow bacterial growth. The growth was followed by measuring the turbidity (OD600 nm) every hour during 6 or 7 hours. Then, resazurin (50 μM) was added in all the wells, and fluorescence was measured after 2 h to quantify the percent of bacterial viability. The same methodology used with SYTO 61 was applied to calculate a percent of viability after resazurin staining.

The test system of data set [9] is Paracoccus sp. (4M6). As to the kind of experiment: microbe, parasite or virus in culture.
Description: as §2, §3

Data set [10] has as its system Polaribacter sp. (TC5). As to the kind of experiment: Anti-adhesion test, strain TC5. The format is cell-based.
In data set [11] the test system is marine bacterial strains (TC14, TC8, 4M6, TC5 and TC11). As to the kind of experiment: Toxicity test, summary over the strains. The settings on record: comparison with reference biocides. The data set is classed as cell-based. From the text:
(§4) In examples 64 and 65, the following marine bacterial strains are used.

For data set [12], the system named is Shewanella sp. (TC11). As to the kind of experiment: Anti-adhesion test, strain TC11. The format is cell-based.
Data set [13] relates to Polaribacter sp. (TC5). As to the kind of experiment: Toxicity test, strain TC5. The data set is classed as cell-based. The source says: Polaribacter sp. (TC5) was isolated in June 2010 in the Military Harbor of Toulon (Mediterranean Sea, France) as described in F. Brian-Jaisson, A. Ortalo-Magné, L. Guentas-Dombrowsky, F. Armougom, Y. Blache, M. Molmeret, Microb. Ecol., 2014, 68, 94-110.

The subject of data set [14] is marine bacterial strains (TC14, TC8, 4M6, TC5 and TC11). As to the kind of experiment: Anti-adhesion test, summary over the strains. The format is cell-based. How it is done: Bacterial strains were grown on Väätänen nine-salts solution (VNSS). When the stationary phase was reached, the bacterial suspension was centrifuged. Cells were then diluted in sterile artificial sea water (ASW) and introduced in microtiter plates (sterile black PS; Nunc, Fisher Scientific, France) with the tested compound (at eight concentrations in three replicates) in the presence of three controls: (i) non-specific staining control, (ii) adhesion control, and (iii) positive control. The maximum percentage of solvent (DMSO 2%) used to dilute the tested compound was also tested in triplicate as additional control. After incubation during an optimized adhesion time (moderately 15 h), non-adhered bacteria were eliminated and adhered cells were quantified after SYTO 61 (1 μM) staining. A percentage of inhibition was calculated per well. A sigmoid dose-response curve was obtained by plotting the percentage of inhibition as a function of the log of tested compound concentration, after mean (n=3) and standard deviation (SD) calculation per triplicate for each concentration. EC50 values were then calculated for each compound.
as §4

Like-named read-outs stand apart in the source and are kept apart here. Some results are limits rather than exact numbers.

In general, inhibition refers to the relative decrease from the control value, in per cent.

For `CN(C)CCOc1ccc(CCn2cc(CNCc3cn(CCc4ccc(OCCN(C)C)c(Br)c4)nn3)nn2)cc1Br` [AS164], the activity at 200 µM came out at 47.1 ± 1% in data set [1], 51.7 ± 4.3% in the data set with Paracoccus sp. (4M6) [2] and 40.8 ± 5% in data set [3]. In addition, the EC50 in data set [1] was found to be 176 ± 3 µM; in data set [3] it was 126 ± 21.5 µM. Besides, in data set [4], the “inhibition efficiency (IE %) from Rct values” is given as “around 95%”. For the same compound, the IE % in [5] (0.1 ppm) turned out to be 57.10%; in [5] (0.3 ppm), 90.49%; in data set [5] (0.5 ppm), 89.20%; in data set [5] (2 ppm), 92.42%; in data set [5] (10 ppm), 97.20%. Also, the “inhibition efficiency from weight loss experiments” value in data set [5] (25-200 ppm) is on record as “greater than 97%”.

As to `CN(C)CCCOc1c(Br)cc(CCn2cc(-c3ccc(-c4cn(CCc5cc(Br)c(OCCCN(C)C)c(Br)c5)nn4)cc3)nn2)cc1Br` [SA34, 3-(4-(2-(4-(4-(1-(4-(3-(dimethylamino)propoxy)-3,5-dibromophenethyl)-1H-1,2,3-triazol-4-yl)phenyl)-1H-1,2,3-triazol-1-yl)ethyl)-2,6-dibromophenoxy)-N,N-dimethylpropan-1-amine], in [6], the “IS: LC50/EC50 (selectivity index), TC14” value stood at 10.1. In addition, the “LC50 (necessary concentration to kill 50% of the bacteria), TC14” value in data set [6] was 132 µM. Further, the activity at 200 µM in data set [1] was 10.2 ± 3.1%; in the data set on Paracoccus sp. (4M6) [2], 8.2 ± 3.5%; with Polaribacter sp. (TC5) [10] (15 h, 200 μM), 7.9 ± 7.3%; in data set [3], 13 ± 7.7%; with Shewanella sp. (TC11) [12] (15 h, 200 μM, strain TC11, read-out: % of adhesion at 200 μM, TC11), 7 ± 3.12%. Moreover, the EC50 is 50.5 ± 10.9 µM in data set [1]; 1.5 ± 2.1 µM with Paracoccus sp. (4M6) [2] (read-out: EC50 (effective concentration to inhibit 50% of the adhesion), 4M6); 4.6 ± 6.3 µM in the data set with Polaribacter sp. (TC5) [10] (read-out: EC50 (effective concentration to inhibit 50% of the adhesion)); 13.1 ± 1 µM in data set [3]; 27.2 ± 0.5 µM with Shewanella sp. (TC11) [12] (read-out: EC50 (effective concentration to inhibit 50% of the adhesion), strain TC11). In addition, the “IS: LC50/EC50 (selectivity index), TC11” value in the data set with Shewanella sp. (TC11) [7] is reported as 4.3. For the same compound, in the data set with Shewanella sp. (TC11) [7], the “LC50 (necessary concentration to kill 50% of the bacteria), TC11” value turned out to be 115.9 µM. Further, the CC50 in data set [8] (Pseudoalteromonas lipolytica, read-out: LC50 (necessary concentration to kill 50% of the bacteria), TC8) was 174 µM; in the data set on Paracoccus sp. (4M6) [9] (Paracoccus, read-out: LC50 (necessary concentration to kill 50% of the bacteria), 4M6), 114 µM; in the data set with Polaribacter sp. (TC5) [13] (read-out: LC50 (necessary concentration to kill 50% of the bacteria)) it was 94.3 µM. Further, in data set [8] (strain TC8), the “IS: LC50/EC50 (selectivity index), TC8” value is 3.5. Moreover, the “IS: LC50/EC50 (selectivity index), 4M6” value in the data set on Paracoccus sp. (4M6) [9] (strain 4M6) turned out to be 75.7. Moreover, the “toxicity by LC50 values compared with TBTO/ZINEB” value in [11] was “less toxic than ZINEB”. In the data set on Polaribacter sp. (TC5) [13], the “IS: LC50/EC50 (selectivity index), TC5” value is recorded as 20.5. Further, in [14] (comparison with reference biocides), the “EC50 compared with TBTO/ZINEB” value was “comparable to that of ZINEB”. Moreover, the inhibition at 200 µM in data set [14] (read-out: inhibition of the adhesion of at least four marine bacterial strains) is no less than 85%; in [14] (read-out: inhibition of the adhesion of at least two marine bacterial strains), no less than 65%. For the same compound, the IE % is listed as 52.40% in data set [5] (0.1 ppm); 70.39% in data set [5] (0.3 ppm); 92.23% in [5] (0.5 ppm); 96.25% in data set [5] (2 ppm); 95.69% in data set [5] (10 ppm).

The values above are taken from patent publication US10487071B2, “Bis-triazole compounds with anti-biofilm and anti-corrosion properties” (Université de Toulon, priority 2015, dated 2019).
